Experimental data: ChEMBL document CHEMBL3351415, “Synthesis, antimicrobial and anti-biofilm activities of novel Schiff base analogues derived from methyl-12-aminooctadec-9-enoate” (Bioorg Med Chem Lett, 2014)
In brackets after ≈: the same amount, converted by molar mass.

Key:
Staphylococcus aureus [1] = assay: Antimicrobial activity against Staphylococcus aureus MTCC 96 incubated for 24 hrs by well diffusion method; assay type: functional; conditions: MTCC 96, 24 h
Staphylococcus aureus [2] = assay: Antimicrobial activity against Staphylococcus aureus MLS-16 MTCC 2940 incubated for 24 hrs by well diffusion method; assay type: functional; conditions: MLS-16 MTCC 2940, 24 h
Pseudomonas aeruginosa = assay: Antimicrobial activity against Pseudomonas aeruginosa MTCC 2453 incubated for 24 hrs by well diffusion method; assay type: functional; conditions: MTCC 2453, 24 h
[3] = Antimicrobial activity against Klebsiella […] incubated for 24 hrs by well diffusion method; assay type: functional, Raoultella planticola
Bacillus subtilis [4] = assay: Antimicrobial activity against Bacillus subtilis MTCC 121 incubated for 24 hrs by well diffusion method; assay type: functional; conditions: MTCC 121, 24 h
Micrococcus luteus = assay: Antimicrobial activity against Micrococcus luteus MTCC 2470 incubated for 24 hrs by well diffusion method; assay type: functional; conditions: MTCC 2470, 24 h
Escherichia coli = assay: Antimicrobial activity against Escherichia coli MTCC 739 incubated for 24 hrs by well diffusion method; assay type: functional; conditions: MTCC 739, 24 h
Staphylococcus aureus [5] = assay: Anti-biofilm activity against Staphylococcus aureus MLS-16 MTCC 2940 assessed as inhibition of biofilm formation incubated for 24 hrs by crystal violet staining based modified biofilm inhibition assay; assay type: functional, organism-based; conditions: MLS-16 MTCC 2940, 24 h
Staphylococcus aureus [6] = assay: Anti-biofilm activity against Staphylococcus aureus MTCC 96 assessed as inhibition of biofilm formation incubated for 24 hrs by crystal violet staining based modified biofilm inhibition assay; assay type: functional, organism-based; conditions: MTCC 96, 24 h
Bacillus subtilis [7] = assay: Anti-biofilm activity against Bacillus subtilis MTCC 121 assessed as inhibition of biofilm formation incubated for 24 hrs by crystal violet staining based modified biofilm inhibition assay; assay type: functional, organism-based; conditions: MTCC 121, 24 h
Staphylococcus aureus [8] = assay: Bactericidal activity against Staphylococcus aureus MTCC 96 incubated for 24 hrs; assay type: functional; conditions: MTCC 96, 24 h
Bacillus subtilis [9] = assay: Bactericidal activity against Bacillus subtilis MTCC 121 incubated for 24 hrs; assay type: functional; conditions: MTCC 121, 24 h
Staphylococcus aureus [10] = assay: Bactericidal activity against Staphylococcus aureus MLS-16 MTCC 2940 incubated for 24 hrs; assay type: functional; conditions: MLS-16 MTCC 2940, 24 h

| Structure (SMILES) | MIC (Staphylococcus aureus [1]) [µM] | MIC (Staphylococcus aureus [2]) [µM] | MIC (Pseudomonas aeruginosa) [µM] | MIC [3] [µM] | MIC (Bacillus subtilis [4]) [µM] | MIC (Micrococcus luteus) [µM] | MIC (Escherichia coli) [µM] | IC50 (Staphylococcus aureus [5]) [µM] | IC50 (Staphylococcus aureus [6]) [µM] | IC50 (Bacillus subtilis [7]) [µM] | MBC (Staphylococcus aureus [8]) [µM] | MBC (Bacillus subtilis [9]) [µM] | MBC (Staphylococcus aureus [10]) [µM] |
| --- | --- | --- | --- | --- | --- | --- | --- | --- | --- | --- | --- | --- | --- |
| CCCCCCC(C/C=C\CCCCCCCC(=O)OC)/N=C\c1ccc(F)cc1 (stereo not given) | 150 (≈ 62.6 µg/mL) | 150 (≈ 62.6 µg/mL) | > 300 | > 300 | 150 (≈ 62.6 µg/mL) | > 300 | > 300 | – | – | – | – | – | – |
| CCCCCCC(C/C=C\CCCCCCCC(=O)OC)/N=C\c1ccc(Cl)cc1 (stereo not given) | 9 (≈ 3.91 µg/mL) | 9 (≈ 3.91 µg/mL) | > 300 | > 300 | 9 (≈ 3.91 µg/mL) | > 300 | > 300 | 4.3 | 4.8 | 6 | 18 (≈ 7.81 µg/mL) | 9 (≈ 3.91 µg/mL) | 18 (≈ 7.81 µg/mL) |
| O=C(O)c1cn(C2CC2)c2cc(N3CCNCC3)c(F)cc2c1=O [CIPROFLOXACIN] | 2.7 (≈ 0.895 µg/mL) | 2.7 (≈ 0.895 µg/mL) | 2.7 (≈ 0.895 µg/mL) | 2.7 (≈ 0.895 µg/mL) | 2.7 (≈ 0.895 µg/mL) | 2.7 (≈ 0.895 µg/mL) | 2.7 (≈ 0.895 µg/mL) | – | 0.99 | 1.53 | 2.7 (≈ 0.895 µg/mL) | 5.7 (≈ 1.89 µg/mL) | 5.7 (≈ 1.89 µg/mL) |
| CCCCCCC(C/C=C\CCCCCCCC(=O)OC)/N=C\c1ccc(O)c(OC)c1 (stereo not given) | 17.5 (≈ 7.8 µg/mL) | 17.5 (≈ 7.8 µg/mL) | > 300 | > 300 | 17.5 (≈ 7.8 µg/mL) | > 300 | > 300 | 8 | 9.4 | 10.3 | 35 (≈ 15.6 µg/mL) | 35 (≈ 15.6 µg/mL) | 35 (≈ 15.6 µg/mL) |
| CCCCCCC(C/C=C\CCCCCCCC(=O)OC)/N=C\c1ccc(OC)cc1OC (stereo not given) | 67.9 (≈ 31.2 µg/mL) | 33.9 (≈ 15.6 µg/mL) | > 300 | > 300 | 33.9 (≈ 15.6 µg/mL) | > 300 | > 300 | – | – | – | – | – | – |
| CCCCCCC(C/C=C\CCCCCCCC(=O)OC)/N=C\c1ccc(O)cc1 (stereo not given) | 18.7 (≈ 7.77 µg/mL) | 18.7 (≈ 7.77 µg/mL) | > 300 | > 300 | 37.5 (≈ 15.6 µg/mL) | > 300 | > 300 | 9.1 | 10.1 | 19.5 | 37.5 (≈ 15.6 µg/mL) | 75.1 (≈ 31.2 µg/mL) | 37.5 (≈ 15.6 µg/mL) |
| CCCCCCC(C/C=C\CCCCCCCC(=O)OC)/N=C\c1ccc(Cl)cc1Cl (stereo not given) | > 300 | > 300 | > 300 | > 300 | > 300 | > 300 | > 300 | – | – | – | – | – | – |
| CCCCCCC(C/C=C\CCCCCCCC(=O)OC)/N=C\c1ccc(C)cc1 (stereo not given) | > 300 | > 300 | > 300 | > 300 | > 300 | > 300 | > 300 | – | – | – | – | – | – |
| CCCCCCC(C/C=C\CCCCCCCC(=O)OC)/N=C\c1cc(OC)c(O)c(OC)c1 (stereo not given) | 16.4 (≈ 7.8 µg/mL) | 16.4 (≈ 7.8 µg/mL) | > 300 | > 300 | 16.4 (≈ 7.8 µg/mL) | > 300 | > 300 | 6.5 | 7.3 | 8.6 | 16.4 (≈ 7.8 µg/mL) | 16.4 (≈ 7.8 µg/mL) | 32.8 (≈ 15.6 µg/mL) |
| CCCCCCC(C/C=C\CCCCCCCC(=O)OC)/N=C\c1ccc(C#N)cc1 (stereo not given) | > 300 | > 300 | > 300 | > 300 | > 300 | > 300 | > 300 | – | – | – | – | – | – |
| CCCCCCC(C/C=C\CCCCCCCC(=O)OC)/N=C\c1ccccc1O (stereo not given) | > 300 | > 300 | > 300 | > 300 | > 300 | > 300 | > 300 | – | – | – | – | – | – |
| CCCCCCC(C/C=C\CCCCCCCC(=O)OC)/N=C\C=C\c1ccc(N(C)C)cc1 (stereo not given) | 16.6 (≈ 7.78 µg/mL) | 16.6 (≈ 7.78 µg/mL) | > 300 | > 300 | 33.3 (≈ 15.6 µg/mL) | > 300 | > 300 | 8.1 | 10.2 | 21.7 | 16.6 (≈ 7.78 µg/mL) | 66.6 (≈ 31.2 µg/mL) | 33.3 (≈ 15.6 µg/mL) |
| CCCCCCC(C/C=C\CCCCCCCC(=O)OC)/N=C\c1c[nH]c2ccccc12 (stereo not given) | 17.8 (≈ 7.81 µg/mL) | 17.8 (≈ 7.81 µg/mL) | > 300 | > 300 | 35.6 (≈ 15.6 µg/mL) | > 300 | > 300 | 9.5 | 7.3 | 21.9 | 35.6 (≈ 15.6 µg/mL) | 71.2 (≈ 31.2 µg/mL) | 35.6 (≈ 15.6 µg/mL) |
| CCCCCCC(C/C=C\CCCCCCCC(=O)OC)/N=C\c1ccc(OC)c(OC)c1 (stereo not given) | 67.9 (≈ 31.2 µg/mL) | 33.9 (≈ 15.6 µg/mL) | > 300 | > 300 | 33.9 (≈ 15.6 µg/mL) | > 300 | > 300 | 24.4 | 41.8 | 21.3 | 136 (≈ 62.5 µg/mL) | 33.9 (≈ 15.6 µg/mL) | 67.9 (≈ 31.2 µg/mL) |
| CCCCCCC(C/C=C\CCCCCCCC(=O)OC)/N=C\c1cccc([N+](=O)[O-])c1 (stereo not given) | > 300 | > 300 | > 300 | > 300 | > 300 | > 300 | > 300 | – | – | – | – | – | – |
| CCCCCCC(C/C=C\CCCCCCCC(=O)OC)/N=C\c1cccc(C)c1 (stereo not given) | 151 (≈ 62.6 µg/mL) | 75.5 (≈ 31.2 µg/mL) | > 300 | > 300 | 75.5 (≈ 31.2 µg/mL) | > 300 | > 300 | – | – | – | – | – | – |
| CCCCCCC(C/C=C\CCCCCCCC(=O)OC)/N=C\c1ccc(OC)cc1 (stereo not given) | 18.1 (≈ 7.78 µg/mL) | 36.3 (≈ 15.6 µg/mL) | > 300 | > 300 | 18.1 (≈ 7.78 µg/mL) | > 300 | > 300 | 23.7 | 12.1 | 7.9 | 36.3 (≈ 15.6 µg/mL) | 36.3 (≈ 15.6 µg/mL) | 36.3 (≈ 15.6 µg/mL) |
| CCCCCCC(C/C=C\CCCCCCCC(=O)OC)/N=C\c1ccc(N(C)C)cc1 (stereo not given) | 17.6 (≈ 7.79 µg/mL) | 17.6 (≈ 7.79 µg/mL) | > 300 | > 300 | 35.2 (≈ 15.6 µg/mL) | > 300 | > 300 | 11.5 | 9.5 | 27.8 | 17.6 (≈ 7.79 µg/mL) | 70.5 (≈ 31.2 µg/mL) | 35.2 (≈ 15.6 µg/mL) |
